Drawing on patent US7879848B2, “Dipeptidyl Peptidase-IV inhibiting compounds, method of preparing the same, and pharmaceutical compositions containing the same as an active agent” (LG Life Sciences, Ltd., priority 2005, dated 2011), this text covers IC50 for twelve compounds.

In this test the target is T1, Dipeptidyl Peptidase-IV (DPP-IV) (Homo sapiens, UniProt P27487).
T1 construct: made in house
Description: Measurement of DPP-IV Activity-Inhibiting Ability (fluorescent substrate Ac-Gly-Pro-AFC). It is filed as biochemical. Particulars: 25° C., 50 mmol HEPES (pH 7.4), DP-IV 7.1 nM, enzyme reaction for 1 hour. In a few lines:
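Baculovirus-expressed, nickel-purified enzyme (7.1 nM) was reacted with 100 µM Ac-Gly-Pro-AFC in 50 mmol HEPES pH 7.4 at 25 °C across a range of inhibitor concentrations. Product fluorescence was read at excitation 400 nm and emission 505 nm.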

T1 sequence (P27487 whole entry): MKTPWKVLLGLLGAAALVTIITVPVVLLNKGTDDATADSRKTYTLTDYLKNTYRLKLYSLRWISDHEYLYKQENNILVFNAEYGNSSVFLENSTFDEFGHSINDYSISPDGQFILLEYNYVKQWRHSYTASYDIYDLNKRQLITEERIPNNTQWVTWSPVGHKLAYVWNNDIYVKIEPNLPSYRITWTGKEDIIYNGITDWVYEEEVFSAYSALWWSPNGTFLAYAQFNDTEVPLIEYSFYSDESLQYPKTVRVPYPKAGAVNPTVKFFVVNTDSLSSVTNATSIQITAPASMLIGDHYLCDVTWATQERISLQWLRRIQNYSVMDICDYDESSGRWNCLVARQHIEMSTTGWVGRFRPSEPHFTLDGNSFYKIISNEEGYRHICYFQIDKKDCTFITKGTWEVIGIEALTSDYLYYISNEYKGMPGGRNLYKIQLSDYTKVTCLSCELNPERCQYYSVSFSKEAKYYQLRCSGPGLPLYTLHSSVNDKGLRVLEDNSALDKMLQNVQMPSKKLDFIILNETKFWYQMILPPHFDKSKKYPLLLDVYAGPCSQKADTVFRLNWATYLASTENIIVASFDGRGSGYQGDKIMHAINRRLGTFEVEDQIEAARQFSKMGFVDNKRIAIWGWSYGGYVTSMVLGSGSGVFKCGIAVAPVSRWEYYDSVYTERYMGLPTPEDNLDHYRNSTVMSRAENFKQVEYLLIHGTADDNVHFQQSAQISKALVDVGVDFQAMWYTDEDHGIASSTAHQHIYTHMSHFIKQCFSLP

In the case of `C[C@H]1CN(C[C@@H](N)CC(=O)N2CCn3c(nnc3C(F)(F)C(F)(F)F)C2)C(=O)CO1` [Ex. 90, (6S)-4-{(2S)-2-amino-4-oxo-4-[3-(pentafluoroethyl)-5,6-dihydro[1,2,4]triazolo[4,3-a]pyrazin-7(8H)-yl]butyl}-6-methylmorpholine-3-one], the IC50 was determined as 356 nM.
Next, `CC1CN(C[C@@H](N)CC(=O)N2CCc3c(nc(C(F)(F)F)nc3C(F)(F)F)C2)C(=O)CS1` (stereo partly drawn) [Ex. 91, 4-{(2S)-2-amino-4-[2,4-bis(trifluoromethyl)-5,8-dihydropyrido[3,4-d]pyrimidin-7(6H)-yl]-4-oxobutyl}-6-methylthiomorpholin-3-one]: 85 nM.
The value for `CC(C)(C)c1nc2c(c(C(F)(F)F)n1)CCN(C(=O)C[C@H](N)CN1CC(F)(F)CCC1=O)C2` [Ex. 92, 1-{(2S)-2-amino-4-[2-t-butyl-4-(trifluoromethyl)-5,8-dihydropyrido[3,4-d]pyrimidin-7(6H)-yl]-4-oxobutyl}-5,5-difluoropiperidin-2-one] was 48 nM; that for `C[C@H]1CN(C[C@@H](N)CC(=O)N2CCc3c(nc(C(C)(C)C)nc3C(F)(F)F)C2)C(=O)CO1` [Ex. 93] was 55 nM.
`CC1CN(C[C@@H](N)CC(=O)N2CCn3c(nnc3C(F)(F)F)C2)C(=O)CS1` (stereo partly drawn) [Ex. 94, 4-{(2S)-2-amino-4-oxo-4-[3-(trifluoromethyl)-5,6-dihydro[1,2,4]triazolo[4,3-a]pyrazin-7(8H)-yl]butyl}-6-methylthiomorpholin-3-one] gave an IC50 of 238 nM.
In turn, `CCc1nc2c(c(C(F)(F)F)n1)CCN(C(=O)C[C@H](N)CN1C[C@H](C)CCC1=O)C2` [Ex. 95, (5R)-1-{(2S)-2-amino-4-[2-ethyl-4-(trifluoromethyl)-5,8-dihydropyrido[3,4-d]pyrimidin-7(6H)-yl]-4-oxobutyl}-5-methylpiperidin-2-one] came in with an IC50 of 13 nM. This IC50 lies about 18-fold lower than the previous one.
The compound `C[C@@H]1CCC(=O)N(C[C@@H](N)CC(=O)N2CCc3c(nc(C(F)(F)C(F)(F)F)nc3C(F)(F)F)C2)C1` [Ex. 96, (5R)-1-{(2S)-2-amino-4-oxo-4-[2-(pentafluoroethyl)-4-(trifluoromethyl)-5,8-dihydropyrido[3,4-d]pyrimidin-7(6H)-yl]butyl}-5-methylpiperidin-2-one] returned an IC50 of 7 nM.
Next, `C[C@H]1CN(C[C@@H](N)CC(=O)N2CCc3c(nc(C(F)(F)C(F)(F)F)nc3C(F)(F)F)C2)C(=O)CO1` [Ex. 97, (6S)-4-{(2S)-2-amino-4-oxo-4-[2-(pentafluoroethyl)-4-(trifluoromethyl)-5,8-dihydropyrido[3,4-d]pyrimidin-7(6H)-yl]butyl}-6-methylmorpholine-3-one]: 57 nM; `N[C@@H](CC(=O)N1CCc2c(nc(C(F)(F)C(F)(F)F)nc2C(F)(F)F)C1)CN1CC(F)(F)CCC1=O` [Ex. 98, 1-{(2S)-2-amino-4-oxo-4-[2-(pentafluoroethyl)-4-(trifluoromethyl)-5,8-dihydropyrido[3,4-d]pyrimidin-7(6H)-yl]butyl}-5,5-difluoropiperidin-2-one]: 68 nM.
The value for `CCCc1nc2c(c(C(F)(F)F)n1)CCN(C(=O)C[C@H](N)CN1C[C@H](C)CCC1=O)C2` [Ex. 99, (5R)-1-{(2S)-2-amino-4-oxo-4-[2-propyl-4-(trifluoromethyl)-5,8-dihydropyrido[3,4-d]pyrimidin-7(6H)-yl]butyl}-5-methylpiperidin-2-one] was 19 nM; that for `CCCc1nc2c(c(C(F)(F)F)n1)CCN(C(=O)C[C@H](N)CN1CC(F)(F)CCC1=O)C2` [Ex. 100, 1-{(2S)-2-amino-4-oxo-4-[2-propyl-4-(trifluoromethyl)-5,8-dihydropyrido[3,4-d]pyrimidin-7(6H)-yl]butyl}-5,5-difluoropiperidin-2-one] was 18 nM.
For `C[C@@H]1CCC(=O)N(C[C@@H](N)CC(=O)N2CCc3c(nc(CF)nc3C(F)(F)F)C2)C1` [Ex. 101, (5R)-1-{(2S)-2-amino-4-[2-(fluoromethyl)-4-(trifluoromethyl)-5,8-dihydropyrido[3,4-d]pyrimidin-7(6H)-yl]-4-oxobutyl}-5-methylpiperidin-2-one], half-maximal inhibition (IC50) was put at 21 nM.

For orientation: IC50 means the point on the concentration scale where inhibition reaches its midpoint. A higher IC50 goes with lower potency.
